Values quoted from earlier work in patent US6348193B1, “Method for inhibiting pathogenic fungi and bacteria in plants using Pseudomonas aureofaciens” (Board of Trustees of Michigan State University, priority 1999, dated 2002).

Legend:
Magnaporthe poae = conditions: in vivo
G. graminis var. tritici = conditions: in the soil atmosphere

Row | Compound | Management of summer patch disease of turfgrass (Magnaporthe poae) | Concentration inhibitory to G. graminis var. tritici (G. graminis var. tritici)
1 | faeriefungin | equal to that of the chemical fungicide fenarimol | –
2 | C=C [Ethylene, ethylene] | – | less than 5 parts-per-million
